{
  "source": "paper PMC7616177",
  "about": "“From structure to clinic: Design of a muscarinic M1 receptor agonist with the potential to treat Alzheimer’s disease” (Cell, 2021)",
  "key": {"[1]": {"molecular_target": "T1, human M1 receptor (Homo sapiens, UniProt P11229)", "T1 construct": "expressed in transfected cells", "T1 sequence (P11229 1-460)": "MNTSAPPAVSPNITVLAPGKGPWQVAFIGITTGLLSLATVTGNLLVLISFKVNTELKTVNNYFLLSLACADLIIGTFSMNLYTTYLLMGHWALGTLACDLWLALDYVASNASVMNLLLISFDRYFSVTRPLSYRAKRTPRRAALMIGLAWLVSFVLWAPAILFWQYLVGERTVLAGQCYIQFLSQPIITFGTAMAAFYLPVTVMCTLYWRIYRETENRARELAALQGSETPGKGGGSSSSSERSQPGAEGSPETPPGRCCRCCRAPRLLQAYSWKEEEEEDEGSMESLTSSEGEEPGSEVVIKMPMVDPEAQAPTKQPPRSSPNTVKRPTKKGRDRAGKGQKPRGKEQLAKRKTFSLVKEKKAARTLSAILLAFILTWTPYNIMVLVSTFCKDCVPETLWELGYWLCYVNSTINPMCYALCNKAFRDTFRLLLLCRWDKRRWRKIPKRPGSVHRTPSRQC", "assay": "M1-receptor functional agonist assays (pERK1/2 and calcium mobilisation) for hits and SAR", "type": "cell-based"}, "[2]": {"molecular_target": "T2, human M5-receptor (Homo sapiens, UniProt P08912)", "T2 construct": "expressed in transfected cells; host or cells: not described", "T2 sequence (P08912 whole entry)": "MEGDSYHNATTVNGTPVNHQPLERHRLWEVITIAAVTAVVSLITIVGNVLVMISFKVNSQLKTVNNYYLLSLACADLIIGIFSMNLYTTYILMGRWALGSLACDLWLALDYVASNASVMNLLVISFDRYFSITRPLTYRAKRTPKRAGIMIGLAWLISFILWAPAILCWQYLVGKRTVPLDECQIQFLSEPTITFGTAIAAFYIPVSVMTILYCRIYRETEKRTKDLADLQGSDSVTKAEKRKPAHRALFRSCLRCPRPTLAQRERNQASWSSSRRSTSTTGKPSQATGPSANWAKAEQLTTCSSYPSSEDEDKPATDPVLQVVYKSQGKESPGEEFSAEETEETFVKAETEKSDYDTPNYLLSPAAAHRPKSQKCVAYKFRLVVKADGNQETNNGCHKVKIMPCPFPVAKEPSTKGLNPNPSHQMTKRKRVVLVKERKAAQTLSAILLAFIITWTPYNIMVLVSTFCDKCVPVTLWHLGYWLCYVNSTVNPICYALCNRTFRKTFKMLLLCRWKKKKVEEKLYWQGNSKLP", "assay": "M5-receptor functional agonist assay", "type": "cell-based"}, "[3]": {"molecular_target": "T1, human M1 receptor", "assay": "pERK1/2 assay in CHO cells overexpressing human M1-receptor", "type": "cell-based"}, "[4]": {"molecular_target": "T1, human M1 receptor", "assay": "[3H]-NMS equilibrium radioligand binding, M1", "procedure": "Non-specific binding (NSB) was determined in the presence of 1 μM atropine). Reactions were terminated by rapid filtration onto GF/B filter paper (Whatman, Maidstone, UK) and three washes with 3 mL ice-cold 0.9% NaCl using a Brandel harvester (M-24TI; Brandel, Fort Lauderdale, FL). Membrane bound radioactivity was determined by liquid scintillation (Ultima Gold; PerkinElmer) counting.\nData was analyzed using PRISM (GraphPad). For saturation binding, non-specific and total binding data were analyzed to a one site binding model. DPM was converted to fmol/mg to compare across constructs. […] […] The Cheng Prusoff equation was used to estimate pKi ([Cheng and Prusoff, 1973])."}, "[5]": {"tested_on": "CA1 pyramidal cells", "assay": "Electrophysiological recordings in rat hippocampal slices", "type": "cell-based", "conditions": "read-out: Spontaneous firing rate of CA1 pyramidal cells EC50"}, "[6]": {"molecular_target": "T1, human M1 receptor", "assay": "Interaction with ACh in IP1 assay after phenoxybenzamine receptor depletion (Schild)", "type": "cell-based"}, "[7]": {"assay": "Rat CNS distribution and estimated unbound brain exposure", "type": "in vivo"}, "[8]": {"tested_on": "C57BL/6J mice", "assay": "Scopolamine-induced deficit in contextual fear conditioning", "type": "in vivo, mouse", "conditions": "mice, 10, 30 or 100 mg/kg i.p. with scopolamine 1.5 mg/kg i.p.", "procedure": "C57BL/6J male mice (aged 8−12 weeks) were acclimatized to the behavioral testing suite at least 2 hours prior to the test. […] Mice were placed in the conditioning chamber (ANY-maze Fear Conditioning System; Stoelting, Dublin, Ireland); after a 2-min adaptation period, they received three tone/foot shock pairings where the foot shock (un-conditioned stimulus; 2 s; 0.4 mA) always co-terminated with a tone (conditioned stimulus; 2.8 kH; 85 dB; 30 s). The conditioned stimulus−unconditioned stimulus pairings were separated by 1-min intervals. After the mice completed training, they remained in the conditioning chamber for 1 min and were then returned to their home cages. The next day, the mice were placed back in the conditioning chamber, and time spent immobile was recorded for 3 min to assess context-dependent learning. Data were analyzed using ANY-maze software (Stoelting)."}, "[9]": {"tested_on": "locomotor activity", "assay": "Locomotor activity alone or with amphetamine", "type": "in vivo", "conditions": "doses up to 100 mg/kg"}, "[10]": {"tested_on": "Tg37 hemizygous mice inoculated with RML prions", "type": "in vivo, mouse", "conditions": "prion mice 9 w.p.i., 30 mg/kg i.p., 24 h after training"}, "[11]": {"tested_on": "aged beagle dogs", "assay": "Delayed non-matching to position (DNMP) in aged beagle dogs", "type": "in vivo, dog", "conditions": "aged beagles", "procedure": "Animals were acclimatised in the testing facility for at least 3 months. During baseline days (days −12 to −8), 50 dogs underwent DNMP testing once daily using delays of 20 and 90 s equally dispersed over 12 trials per session.\nThese 40 subjects were tested on the DNMP using delays of 5, 55 and 105 s equally dispersed over 18 trials per session over five once-daily sessions (days −6 to −2). Therefore, baseline testing was conducted for a total of 10 days.\nThese dogs were then allocated into 5 groups, balanced for mean baseline performance accuracy at the longest delays (n = 8 per group). […] Daily treatment administration began on day 0, and dogs were tested once daily on the DNMP at the same delays employed at baseline for a minimum of 10 days. Each test consisted of two phases; in phase one, the dog is presented with an object over one of the three food wells. After the dog moves the object and obtains the food reward beneath, the tray is removed from the dog’s sight and the delay is initiated. The second phase occurs after the delay and consists of presenting the dog with two identical objects to that used in the first phase. One is in the same position as the first phase and the other covers a food reward in one of the two remaining food wells."}, "[12]": {"assay": "Non-human primate exposure", "type": "in vivo, non-human primates", "conditions": "for Predicted brain exposure Cu,br: non-human primates"}, "[13]": {"assay": "Modified Irwin Functional Observation Battery", "type": "in vivo", "conditions": "plasma; rat, 100 mg/kg oral"}, "[14]": {"tested_on": "rats", "assay": "Modified Irwin Functional Observation Battery", "type": "in vivo", "conditions": "rat"}, "[15]": {"assay": "Human plasma and CSF pharmacokinetics after single oral dose", "type": "in vivo", "conditions": "single 54 mg oral dose"}, "[16]": {"tested_on": "rats", "assay": "Cardiovascular telemetry in rats", "conditions": "telemetered rats"}, "[17]": {"assay": "4-day repeat dose tolerability assessment in dogs", "conditions": "beagle, dog"}, "[18]": {"tested_on": "dogs", "assay": "GLP cardiovascular safety pharmacology telemetry in dogs"}},
  "note": "Where two headings read alike, the source gives them in different places.",
  "data": [
    {"smiles": "CCOC(=O)N1CCC[C@H](N2CCC(C(=O)NC3(C)CCC3)CC2)CC1", "note": "[HTL9936, ethyl (S)-4-(4-((1-methylcyclobutyl)carbamoyl)piperidin-1-yl)azepane-1-carboxylate]", "values": [
      {"measurement": "EC50", "setting": "[1]", "result": 32, "unit": "nM"},
      {"measurement": "M5-receptor agonism", "setting": "[2]", "result": "no detectable agonism"},
      {"measurement": "EC50", "setting": "[3]", "result": 32, "unit": "nM"},
      {"measurement": "Ki", "setting": "[4]", "result": 20000, "unit": "nM"},
      {"measurement": "EC50", "setting": "[5]", "result": 1600, "unit": "nM"},
      {"measurement": "Kb", "setting": "[6]", "result": 6310, "unit": "nM"},
      {"measurement": "Distribution into the CNS", "setting": "[7]; 1 mg/kg intravenous and 10 mg/kg oral", "result": "significant distribution into the CNS"},
      {"measurement": "Estimated unbound drug in the brain Cu,br", "setting": "[7]; 3 mg/kg p.o.", "result": 79, "unit": "nM"},
      {"measurement": "Estimated unbound drug in the brain Cu,br", "setting": "[7]; 10 mg/kg p.o.", "result": 262, "unit": "nM"},
      {"measurement": "Estimated unbound drug in the brain Cu,br", "setting": "[7]; 30 mg/kg p.o.", "result": 786, "unit": "nM"},
      {"measurement": "Effect on scopolamine-induced fear learning deficit", "setting": "[8]", "result": "dose-dependent restoration of learning and memory responses"},
      {"measurement": "Adverse responses and locomotor activity", "setting": "[9]", "result": "no adverse responses nor had any effect on locomotor activity"},
      {"measurement": "Immobility level on re-exposure to training environment", "setting": "[10]", "result": "~ 34%"},
      {"measurement": "Visual-spatial memory (DNMP performance)", "setting": "[11]; 0.3 mg/kg and 1 mg/kg s.c.", "result": "Significant improvements in visual-spatial memory"},
      {"measurement": "Effect compared with donepezil", "setting": "[11]; 1 mg/kg s.c.", "result": "equivalent to that of donepezil"},
      {"measurement": "Predicted brain exposure Cu,br", "setting": "[12]; 0.3 mg/kg subcutaneous", "result": 20, "unit": "nM"},
      {"measurement": "Predicted brain exposure Cu,br", "setting": "[12]; 3 mg/kg subcutaneous", "result": 198, "unit": "nM"},
      {"measurement": "Oral bioavailability", "setting": "[12]; primates", "result": "low oral bioavailability"},
      {"measurement": "Cmax", "setting": "[13]", "result": 6400, "unit": "ng/mL"},
      {"measurement": "Cu,pl", "setting": "[14]; 100 mg/kg oral", "result": "11,994 nM"},
      {"measurement": "Seizure-like effects", "setting": "[14]; oral dosing up to 100 mg/kg", "result": "complete absence of seizure-like effects"},
      {"measurement": "Tmax", "setting": "[15]; CSF, read-out: Time of maximum concentration in CSF", "result": "2 to 3", "unit": "h"},
      {"measurement": "Tmax", "setting": "[15]; plasma, read-out: Plasma tmax", "result": "~0.5", "unit": "h"},
      {"measurement": "Cardiovascular effects at 3 mg/kg", "setting": "[16]; 3 mg/kg oral", "result": "No significant effects"},
      {"measurement": "Heart rate and mean arterial blood pressure", "setting": "[16]; oral 3, 10, 30 and 100 mg/kg, 5 h post-dose average", "result": "dose-dependent increase in heart rate and mean arterial blood pressure"},
      {"measurement": "Cmax at 4 day", "setting": "[17]; plasma", "result": "> 32000", "unit": "ng/mL"},
      {"measurement": "concentration at 4 day", "setting": "[17]; plasma (unbound)", "result": 60, "unit": "µM"},
      {"measurement": "Time for hemodynamic changes to return to control levels after end of i.v. infusion", "setting": "[18]; dogs", "result": "≤ 30", "unit": "min"},
      {"measurement": "Blood pressure and heart rate", "setting": "[18]; telemetered dogs, i.v. infusion", "result": "dose-dependent profile of HTL9936 effects on blood pressure, but not heart rate"}
    ]}
  ]
}
